Earlier results, collected in patent publication US8664392B2, “Pyrazine derivatives for bioconjugation” (MediBeacon, LLC, priority 2004, dated 2014).

Settings: absorb and emit in the blue to orange regions

Stokes shift: ~100 nm
SMILES: Nc1nc(C(=O)O)c(N)nc1C(=O)O [3,6-diamino-2,5-pyrazine-dicarboxylic acid]
